According to US20260014175A1, “PHARMACEUTICAL COMPOSITION FOR ORAL ADMINISTRATION OF CANNABINOIDS” (EM[…]., priority 2022, published 2026):

experiment: Compatibility of CBD / CBD-containing SNEDDS with excipients (CBD release in SGF, SIF, FaSSIF); type: physicochemical
Method: A number of different compositions were prepared and tested in order to determine the compatibility of CBD and/or CBD-containing self-nanoemulsifying drug delivery systems (SNEDDS) with various excipients.

| Compound | compatibility with CBD/CBD-containing SNEDDS |
| --- | --- |
| NCC(=O)O [Glycine] | no signs of incompatibility |
| CCCCCCCCCCCCOS(=O)(=O)[O-].[Na+] [Sodium lauryl sulfate (SLS), Sodium lauryl sulfate] | no signs of incompatibility |
| O=C([O-])CN(CCN(CC(=O)[O-])CC(=O)O)CC(=O)O.[Na+].[Na+] [EDTA sodium] | no signs of incompatibility |
